Measurements: patent US20240336573A1, “COMPOUND FOR THE TREATMENT AND PROPHYLAXIS OF INFECTIOUS DISEASES” (Eberhard Karls Universität Tübingen Medizinische Fakultät, priority 2021, published 2024)
Read-outs that look alike come from different tables or passages of the source.

Legend:
SurA [1] = biological target: T1, SurA (Escherichia coli, UniProt P0ABZ6); assay: nanoDSF of QHL compounds (Tycho); assay type: binding, E. coli; set-up: key: An increase of the inflection points in the nanoDSF experiments is indicated by (+); a decrease by (−); no changes with (none); ambiguity with a question mark (?); settings: re-evaluation; 100 μM compound, 2 μM SurA, 40 mM HEPES pH 7.4
T1 sequence (P0ABZ6 21-428): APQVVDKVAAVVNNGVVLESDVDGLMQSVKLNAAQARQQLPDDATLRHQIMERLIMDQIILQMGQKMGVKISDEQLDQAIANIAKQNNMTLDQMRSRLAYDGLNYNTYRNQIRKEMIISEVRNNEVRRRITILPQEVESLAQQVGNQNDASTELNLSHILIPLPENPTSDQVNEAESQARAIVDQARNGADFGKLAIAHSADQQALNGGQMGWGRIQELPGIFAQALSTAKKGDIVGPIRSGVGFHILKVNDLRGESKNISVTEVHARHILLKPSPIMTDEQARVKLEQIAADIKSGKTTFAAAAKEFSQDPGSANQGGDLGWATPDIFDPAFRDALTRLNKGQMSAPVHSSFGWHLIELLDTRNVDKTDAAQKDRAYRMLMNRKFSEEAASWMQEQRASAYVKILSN
Method: Nano Differential Scanning Fluorimetry (nanoDSF) measurements of the QHL (qualified hit list) compounds provided by the ELF were performed on a Tycho system (NanoTemper).

luciferase = luciferase (Photinus pyralis, UniProt P08659); assay: Luciferase interference deselection assay (D1); assay type: biochemical; settings: DRC format
Sequence of luciferase (P08659 whole entry): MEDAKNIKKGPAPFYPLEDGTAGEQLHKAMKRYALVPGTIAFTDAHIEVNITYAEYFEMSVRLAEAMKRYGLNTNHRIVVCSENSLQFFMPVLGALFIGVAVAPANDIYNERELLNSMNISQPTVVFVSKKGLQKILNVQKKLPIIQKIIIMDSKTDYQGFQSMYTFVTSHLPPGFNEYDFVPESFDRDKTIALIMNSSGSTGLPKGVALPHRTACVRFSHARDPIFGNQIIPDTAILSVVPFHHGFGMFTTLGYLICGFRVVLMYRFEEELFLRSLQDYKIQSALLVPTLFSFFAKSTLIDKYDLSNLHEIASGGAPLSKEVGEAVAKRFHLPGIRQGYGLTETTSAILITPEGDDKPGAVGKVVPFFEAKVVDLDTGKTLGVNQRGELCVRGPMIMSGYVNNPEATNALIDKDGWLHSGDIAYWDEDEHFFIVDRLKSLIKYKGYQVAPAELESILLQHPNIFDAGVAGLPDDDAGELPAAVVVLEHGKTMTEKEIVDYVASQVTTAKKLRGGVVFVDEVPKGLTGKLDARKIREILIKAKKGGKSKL
Description: Starting with approximately 400,000 compounds, a set of 3991 compounds was left for testing in dose response experiments. Due to acquisition of a lower assay window for part of the data obtained during the screening campaign of ELFSC17_02, the data-set was split into P1 and P2 for analysis in ActivityBase. For P1 the initially set criterion of Z-score ≥4 (˜4%) was used for selection of actives and for P2 this selection criterion was adjusted to effect ≥40% (Z-score ˜15). […] In order to reduce this total number of 4205 compounds to a maximum of 4000 compounds allowed to be ordered in serial dilutions for dose response experiments (i.e. 1% of 400,000), the criterion for P1 was changed to Z-score >4.3 gaining 3344 compounds. […] The confirmed actives of ELF program ELFSC17-02 were tested as serial dilutions in the primary assay and deselection assay to generate dose response curves (DRCs). The serial dilutions consisted of 7 equidistant concentration steps (20 μM to 27.4 nM) and were tested in the primary and in the deselection assay in duplo (n=2) in 1536-well format. […] For the luciferase interference deselection assay in DRC-format, luciferase was left out in the Max effect wells, mimicking a 100% effect situation and resulting in a decreased signal. Compounds showing a signal decrease larger than 5 times the standard deviation (Z-score >5) were identified as luciferase […]. […] The ActivityBase application (IDBS) was used to analyze the data and to calculate quality parameters like Z-prime and Signal to Background ratio (S/B). For all compounds the % effect was calculated for all seven concentrations. ActivityBase was also used to calculate the pEC50 and Hill Slope. […] For compounds where no curve was fitted but reached >50% effect at 20 μM the Fit_Max was locked at 100% effect. For compounds where no curve was fitted but reached 100% effect at 20 μM and descended to <50% at 27 nM the Fit_Min was locked at 0%. […] Based on the results of C2 and D1 a list of 383 compounds was created as the preliminary hits, which were evaluated with MST (01). […]

SurA [2] = biological target: T1, SurA; assay: Microscale thermophoresis (Tuebingen, Monolith NT.115); assay type: binding, E. coli; settings: for MST score (Re-evaluation Tuebingen): re-evaluation of QHL compound remainders
Method: His-tagged SurA was labeled with the Monolith His-Tag Labeling Kit RED-tris-NTA (Nanotemper) according to the manufacturer's instructions.
Microscale thermophoresis measurements were performed in 40 mM HEPES pH 7.4, 0.05% Tween-20 at 25° C. with a Monolith NT.115 (NanoTemper) in standard capillaries.

HepG2 cells = assay: Cytotoxicity assay (LDH release); assay type: cell-based; settings: 500 μM compound, 1 h at 37° C., some cells also say precipitate
Method: Cell cytotoxicity of shelf derivatives was evaluated monitoring the LDH release from HepG2 cells using the CytoTox 96@ Non-Radio Cytotoxicity Assay (Promega) according to the manufacturer's instructions. […] After incubation, 25 μl were transferred into a fresh 96-well flat clear bottom plate and mixed with 25 μl CytoTox 96@ Reagent. LDH release reactions were incubated 30 min at RT in the dark and 25 μl Stop Solution were added. LDH release was measured at 490 nm in a multiplate reader.

[3] = system: E. coli BW25113, E. coli JW2496-3, E. coli ATCC 25922; assay: Minimal inhibitory concentration assay (bactericidal/bacteriostatic assessment); assay type: cell-based; settings: dilution series 100-1.7 μM
Description: The intended effect of a SurA inhibitor should be the induction of a disturbance of the outer membrane composition resulting in an increased susceptibility to antibiotic treatment. Of note, Vancomycin is typically not used to treat infections with Gram-negative bacteria, because it is excluded by the OM and not efficient at concentrations that could be achieved in patients. However, at appropriate dosing in vitro it can be used to detect outer membrane defects. For determining a potential sensitizing effect of Vancomycin treatment, the inventors first tested whether the compounds at hand were bactericidal per se. Therefore, the inventors performed a minimal inhibitory concentration (MIC) assay. To this end, 5 ml overnight cultures of E. coli BW25113 (Keio-Collection reference strain), E. coli JW2496-3 (Keio-Collection single gene knockout for bamB, which suffers from decreased outer membrane integrity) and E. coli ATCC 25922 (a reference strain recommended for antibiotic susceptibility testing) were grown in Mueller Hinton Broth, Cation adjusted (MHB-II). The next day, the OD was adjusted to obtain 1*10^8 CFU/ml using fresh MHB-II. Next, this bacterial solution was diluted 1:100 into 20 ml fresh MHB-II. 50 μl of this bacteria solution were then transferred into each well of a 96-well plate prefilled with 50 μl MHB-II supplemented with the desired compounds. The test plates for the bactericidal assessment contained dilution series of the compounds from 100-1.7 μM. Plates were sealed with a gas permeable membrane and incubated o/n at 37° C. in a humid chamber without shaking. After o/n incubation, bacterial growth was quantified by measuring the optical density at 600 nm wavelength in a multiplate reader. Compounds showing no growth inhibition at 100 μM were considered non-bactericidal. Of note, the bactericidal effect of Vancomycin was assessed similarly for each test strain using Vancomycin concentrations ranging from […]. This was done to identify a Vancomycin concentration at which the strains just managed to survive.

[4] = Solubility estimate based on turbidity (OD600 nm); assay type: physicochemical
Description: The evaluation of these shelf derivatives included an estimate of their solubility based on the turbidity (OD600 nm) as well as their activity in the primary assay (2.1), their KD (2.2), their MIC reduction of Vancomycin (2.5) and their cytotoxicity (2.6) (Table 4).

SMILES | nanoDSF(Tycho) Ti#1 (SurA [1]) | nanoDSF(Tycho) Ti#2 (SurA [1]) | Deselection (D1) pIC50 (luciferase; listed as QHL-10) | IC50 (luciferase; read-out: Deselection (D1) pIC50 (converted)) [µM] | MST (Kd in mM) (SurA [2]) | MST score (Re-evaluation Tuebingen) (SurA [2]) | MST (KD) (SurA [2]; resynthesized compounds) | CytoTox (HepG2 cells) | Bacteriostatic MIC Assay Result [3] | Deselection (D1) pIC50 (luciferase) | Kd (SurA [2]; read-out: MST (Kd in mM)) [mM] | Kd (SurA [2]; resynthesized compounds, read-out: MST (KD)) [mM] | Solubility (in words) [4]
NC(=O)c1nc(Cc2ccc(OCC(=O)O)cc2)[nH]c1NC(=O)c1ccc(-c2ccccc2)cc1 [Compound 2a, 2-(4-((5-([1,1′-biphenyl]-4-carboxamido)-4-carbamoyl-1H-imidazol-2-yl)methyl)phenoxy)acetic acid] | ? | + | 5.16 | 6.92 | binding | 2 | binding | 50.23% | non-bacteriostatic |  |  |  | 
CN(C)c1ccc(-c2nc3cc(NC(=O)Cn4cc5ccccc5n4)ccc3[nH]2)cc1 [QHL-24] | none | + |  |  |  | inconclusive | binding | precipitate (7.87%) |  | 4.42 | 0.02 to 0.03 | 0.02 to 0.03 | poor solubility
